Experimental data taken from patent US20250206758A1, “SUBSTITUTED BRIDGED RING INHIBITOR, PREPARATION METHOD THEREFOR AND APPLICATION THEREOF” (SUZHOU ZELGEN BIOPHARMACEUTICALS CO., LTD., priority 2022, published 2025).

Assays:
[1] = test system: ERK phosphorylation in KRAS^G12D mutant cells (AGS); assay: AGS ERK phosphorylation inhibition experiment; format: cell-based; settings: 1 hour compound, hEGF 10 minutes
Method: KRAS^G12D mutant cells (such as GP2D, AGS, etc.) were seeded in a 384-well plate and cultured overnight in a 37° C., 5% CO2 incubator.
200 nL of diluted compound was added with Echo 500 to a final DMSO concentration of 0.5%, and cultured in a 37° C., 5% CO2 incubator for 1 hour. Then hEGF was added for acting for 10 minutes.
The culture medium was discarded, and then cell fixative was added to fix the cells.
The cells were washed once with PBS, and then incubated with cold 100% methanol.
Methanol was removed and the cells were washed with PBS.
PBS was removed, and each well was added with Li-Cor blocking buffer, and blocked at room temperature for 1 hr.
The blocking solution was removed, and primary antibody mixture was added to each well, and incubated at […] 4° C. overnight.
The primary antibody mixture was removed, and the cells were washed by adding PBST for 3 times.
Secondary antibody mixture was added and incubated at room temperature in the dark for 45 min.
The secondary antibody mixture was removed, and the cells were washed by adding PBST for 3 times. Finally, PBST was suctioned out, and the plate was centrifuged upside down at 1000 rpm for 1 min.
The plate was read by Odyssey CLx.

AGS = assay: Cell proliferation inhibition, AGS (CellTiter-Glo 3D, 7 days); format: cell-based; settings: Homo sapiens, 168 h
Method: • (a) Resuscitating cells in T75 cell culture flask: • (b) When the cell confluence reaches 80-90%, subculturing the cells.
The diluted test compound was added to a 384-well cell culture plate with a nanoliter pipetting system, and duplicate wells were set up. An equal volume of culture medium was added to the positive control group; and an equal volume of DMSO was added to the negative control group, then centrifugation was conducted at 1000 rpm for 1 min at room temperature.
Cells were inoculated into a) 384-well culture plate, with an equal volume of cells added to the negative control group, and only an equal volume of culture medium added to the positive control group. The plate was centrifuged at 1000 rpm for 1 min at room temperature, and the final DMSO concentration of the compound was 0.5% at last. The plate was placed in a 37° C., 5% CO2 constant temperature incubator for 7 days.
20 μL/well of CellTiter-Glo® 3D to b) was added to 384-well cell culture plate, and the plate was shook at 320 rpm for 20 min in the dark, and incubated at room temperature in the dark for 2 hrs.
The luminescence value was read using an Envision multi-functional microplate reader.
The inhibition rate (IR) of the test compound was calculated using the following formula: IR (%)=(1−(RLU compound−RLU blank control)/(RLU meidum control−RLU blank control))*100%. The inhibition rates of different concentrations of compounds were calculated in Excel, and then the inhibition curves were plotted and the related parameters (including the minimum inhibition rate, maximum inhibition rate and IC50) were calculated using GraphPad Prism software.

GP2D = assay: Cell proliferation inhibition, GP2D (CellTiter-Glo 3D, 7 days); format: cell-based; settings: 168 h
Method in brief: (§1)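 Cells exposed to compound (final DMSO 0.5%) in duplicate for 7 days at 37 °C, 5% CO2, then CellTiter-Glo 3D added with 20 min shaking and 2 h dark incubation before luminescence. Inhibition normalized to medium and blank controls; IC50, minimum and maximum inhibition from curve fits.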

AsPC-1 = assay: Cell proliferation inhibition, AsPC-1 (CellTiter-Glo 3D, 7 days); format: cell-based; settings: Homo sapiens, ASPC1, 168 h; AsPC-1, 7 days
Method in brief: as §1

in vivo = settings: male, ICR, mouse, po, 30 mg/kg
Method: Male ICR mice, weighing 22-24 g, were fasted overnight and orally administered with 30 mg/kg of a solution of the compound of the present invention or the control compound [10% DMSO+60% PEG400+30% aqueous solution]. Blood was collected at 0.25, 0.5, 1.0, 2.0, 4.0, 6.0, 8.0, 12.0 and 24 h after administration of the compound of the present invention respectively, and the concentration of the compound of the present invention or the control compound in plasma was determined by LC/MS/MS.

| SMILES | IC50 ([1]; Homo sapiens) [nM] | IC50 [1] [nM] | IC50 (AGS) [nM] | IC50 (GP2D) [nM] | IC50 (AsPC-1) [nM] | AUC(0-inf) (in vivo) [ng·h/mL] | AUC(0-t) (in vivo) [ng·h/mL] | Cmax (in vivo) [ng/mL] | Tmax (in vivo) [h] | half-life (in vivo) [h] |
| --- | --- | --- | --- | --- | --- | --- | --- | --- | --- | --- |
| C#Cc1c(F)ccc2cc(O)cc(-c3ncc4c(N5CC6CCC(C5)N6)nc(OCC56CCCN5CC5(CC5)C6)nc4c3F)c12 [Example 9, 4-(4-(1R,5S)-3,8-diazabicyclo[3.2.1]octan-3-yl)-2-(dihydro-1′H,3′H-spiro[1,2′-pyrrolizin]-7a′(5′H)-yl)methoxy)-8-fluoropyridino[4,3-d]pyrimidin-7-yl)-5-ethynyl-6-fluoro-naphthalen-2-ol] | 8.2 |  |  |  |  |  |  |  |  |  |
| C#Cc1c(F)ccc2cc(O)cc(-c3ncc4c(N5C[C@H]6CC[C@@H](C5)N6)nc(OCC56CCCN5CC5(C6)CC5(F)F)nc4c3F)c12 (single isomer, unassigned) [Example 16A] |  | 10.6 |  |  |  |  |  |  |  |  |
| Cc1c(N)cnc(C(F)(F)F)c1-c1ncc2c(N3C[C@H]4CC[C@@H](C3)N4)nc(OC[C@@]34CCCN3C[C@@]3(CC3(F)F)C4)nc2c1F [Example 54, 5-(4-((1R,5S)-3,8-diazabicyclo[3.2.1]octan-3-yl)-2-(((1S,7a'S)-2,2-difluorodihydro-1′H,3′H-spiro[cyclopropan-1,2′-pyrrolizin]-7a′(5′H)-yl)methoxy)-8-fluoropyridino[4,3-d]pyrimidin-7-yl)-4-methyl-6-(trifluoromethyl)pyridin-3-amine] |  |  | > 1000 | > 100 | > 1000 |  |  |  |  |  |
| Nc1cc(Cl)c(C(F)(F)F)c(-c2ncc3c(N4C[C@H]5CC[C@@H](C4)N5)nc(OC[C@@]45CCCN4C[C@@]4(CC4(F)F)C5)nc3c2F)c1F [Example 34, 3-(4-((1R,5S)-3,8-diazabicyclo[3.2.1]octan-3-yl)-2-(((1S,7a'S)-2,2-difluorodihydro-1′H,3′H-spiro[cyclopropan-1,2′-pyrrolizin]-7a′(5′H)-yl)methoxy)-8-fluoropyridino[4,3-d]pyrimidin-7-yl)-5-chloro-2-fluoro-4-(trifluoromethyl)aniline] |  |  | 21.5 | 1.03 | 11.1 |  |  |  |  |  |
| Nc1cc(-c2ncc3c(N4C[C@H]5CC[C@@H](C4)N5)nc(OC[C@@]45CCCN4C[C@@]4(CC4(F)F)C5)nc3c2F)c(C(F)(F)F)c(Cl)c1F [Example 41, 5-(4-((1R,5S)-3,8-diazabicyclo[3.2.1]octan-3-yl)-2-(((1S,7a'S)-2,2-difluorodihydro-1′H,3′H-spiro[cyclopropan-1,2′-pyrrolizin]-7a′(5′H)-yl)methoxy)-8-fluoropyridino[4,3-d]pyrimidin-7-yl)-3-chloro-2-fluoro-4-(trifluoromethyl)aniline] |  |  | 16.6 | 1.41 | 14.2 |  |  |  |  |  |
| Nc1cc(Cl)c(C(F)(F)F)c(-c2ncc3c(N4C[C@H]5CC[C@@H](C4)N5)nc(OC[C@@]45CCCN4C[C@@]4(CC4(F)F)C5)nc3c2F)c1Cl [Example 35, 3-(4-((1R,5S)-3,8-diazabicyclo[3.2.1]octan-3-yl)-2-(((1S,7a′S)-2,2-difluorodihydro-1′H,3′H-spiro[cyclopropan-1,2′-pyrrolizin]-7a′(5′H)-yl)methoxy)-8-fluoropyridino[4,3-d]pyrimidin-7-yl)-2,5-dichloro-4-(trifluoromethyl)aniline] |  |  | 79.7 | 4.89 | 45.7 |  |  |  |  |  |
| N#Cc1c(N)sc2c(F)ccc(-c3ncc4c(N5CC6CCC(C5)N6)nc(OC[C@@]56CCCN5C[C@@]5(CC5(F)F)C6)nc4c3F)c12 [Example 24] |  |  |  | 2.5 | 62 | 1270 | 1250 | 461 | 0.5 | 4.74 |
| Cc1c(F)c(N)cc(-c2ncc3c(N4C[C@H]5CC[C@@H](C4)N5)nc(OC[C@@]45CCCN4C[C@@]4(CC4(F)F)C5)nc3c2F)c1C(F)(F)F [Example 42, 5-(4-((1R,5S)-3,8-diazabicyclo[3.2.1]octan-3-yl)-2-(((1S,7a'S)-2,2-difluorodihydro-1′H,3′H-spiro[cyclopropan-1,2′-pyrrolizin]-7a′(5′H)-yl)methoxy)-8-fluoropyridino[4,3-d]pyrimidin-7-yl)-2-fluoro-3-methyl-4-(trifluoromethyl)aniline] |  |  | 13.9 | 0.68 | 8.83 |  |  |  |  |  |
| C#Cc1c(F)ccc2cc(O)cc(-c3ncc4c(N5C[C@H]6CC[C@@H](C5)N6)nc(OC[C@@]56CCCN5C[C@@]5(CC5(F)F)C6)nc4c3F)c12 [Example 16B-1, 4-(4-((1R,5S)-3,8-diazabicyclo[3.2.1]octan-3-yl)-2-(((1S,7a'S)-2,2-difluorodihydro-1′H,3′H-spiro[cyclopropan-1,2′-pyrrolizin]-7a′(5′H)-yl)methoxy)-8-fluoropyridino[4,3-d]pyrimidin-7-yl)-5-ethynyl-6-fluoronaphthalen-2-ol] |  |  | 1.37 | 0.2 | 1.24 |  |  |  |  |  |
| Cc1cc(N)c(F)c(-c2ncc3c(N4C[C@H]5CC[C@@H](C4)N5)nc(OC[C@@]45CCCN4C[C@@]4(CC4(F)F)C5)nc3c2F)c1C(F)(F)F [Example 26, 3-(4-((1R,5S)-3,8-diazabicyclo[3.2.1]octan-3-yl)-2-(((1S,7a'S)-2,2-difluorodihydro-1′H,3′H-spiro[cyclopropan-1,2′-pyrrolizin]-7a′(5′H)-yl)methoxy)-8-fluoropyridino[4,3-d]pyrimidin-7-yl)-2-fluoro-5-methyl-4-(trifluoromethyl)aniline] |  |  |  |  |  | 3770 | 3380 | 462 | 0.25 | 6.97 |
| N#Cc1c(N)ccc(Cl)c1-c1ncc2c(N3C[C@H]4CC[C@@H](C3)N4)nc(OC[C@@]34CCCN3C[C@@]3(CC3(F)F)C4)nc2c1F [Example 51, 2-(4-((1R,5S)-3,8-diazabicyclo[3.2.1]octan-3-yl)-2-(((1S,7a'S)-2,2-difluorodihydro-1′H,3′H-spiro[cyclopropan-1,2′-pyrrolizin]-7a′(5′H)-yl)methoxy)-8-fluoropyridino[4,3-d]pyrimidin-7-yl)-6-amino-3-chlorobenzonitrile] |  |  | > 1000 | > 100 | > 1000 |  |  |  |  |  |
| Nc1cc(F)c(C(F)(F)F)c(-c2ncc3c(N4C[C@H]5CC[C@@H](C4)N5)nc(OC[C@@]45CCCN4C[C@@]4(CC4(F)F)C5)nc3c2F)c1Cl [Example 36, 3-(4-((1R,5S)-3,8-diazabicyclo[3.2.1]octan-3-yl)-2-(((1S,7a'S)-2,2-difluorodihydro-1′H,3′H-spiro[cyclopropan-1,2′-pyrrolizin]-7a′(5′H)-yl)methoxy)-8-fluoropyridino[4,3-d]pyrimidin-7-yl)-2-chloro-5-fluoro-4-(trifluoromethyl)aniline] |  |  | 298 | 20.4 | 167 |  |  |  |  |  |
| Nc1cc(F)c(Cl)c(-c2ncc3c(N4C[C@H]5CC[C@@H](C4)N5)nc(OC[C@@]45CCCN4C[C@@]4(CC4(F)F)C5)nc3c2F)c1Cl [Example 37, 3-(4-((1R,5S)-3,8-diazabicyclo[3.2.1]octan-3-yl)-2-(((1S,7a'S)-2,2-difluorodihydro-1′H,3′H-spiro[cyclopropan-1,2′-pyrrolizin]-7a′(5′H)-yl)methoxy)-8-fluoropyridino[4,3-d]pyrimidin-7-yl)-2,4-dichloro-5-fluoroaniline] |  |  | > 1000 | > 100 | > 1000 |  |  |  |  |  |
| Nc1cc(Cl)c(C(F)(F)F)c(-c2ncc3c(N4C[C@H]5CC[C@@H](C4)N5)nc(OC[C@@]45CCCN4C[C@@]4(CC4(F)F)C5)nc3c2F)c1 [Example 27, 3-(4-((1R,5S)-3,8-diazabicyclo[3.2.1]octan-3-yl)-2-(((1S,7a'S)-2,2-difluorodihydro-1′H,3′H-spiro[cyclopropan-1,2′-pyrrolizin]-7a′(5′H)-yl)methoxy)-8-fluoropyridino[4,3-d]pyrimidin-7-yl)-5-chloro-4-(trifluoromethyl)aniline] |  |  | 5.24 | 0.38 | 4.14 | 5650 | 5090 | 953 | 0.25 | 9.32 |
